Measured values published in US7160867B2 (Isotechnika, Inc., priority 2003, dated 2007).
“Also recorded” adds a separate entry of the source.

Experiments:
[1] = [14C]-rapamycin, healthy male volunteers; cited from earlier work
[2] = in plasma and in low and neutral pH buffers at 37° C.; cited from earlier work
[3] = Pharmacokinetic profiles in rats after oral dosing (rapamycin in whole blood by LC/MS); assay type: in vivo, Sprague Dawley rats; settings: 2.5 or 10 mg/kg
Procedure: The pharmacokinetic profiles in rats of selected rapamycin carbohydrate derivatives were determined to investigate the ability of the derivatives to deliver free rapamycin into the bloodstream in vivo. […] Whole blood was extracted via jugular bleed over 24 hours and frozen at −20° C. until analysis. Whole blood was analyzed by Liquid Chromatography Mass Spectrometry for the presence of rapamycin.

[4] = test system: heterotopic heart allografts; experiment: Graft survival of heterotopic heart allografts in rats; assay type: in vivo, Wistar Furth rats to Lewis rats
Source text: If graft dysfunction was noted during the 30-day post-transplantation period, the animal was sacrificed. If the animal survived longer than 30 days post-transplantation, the test and control articles were discontinued and the animal was allowed to continue until graft dysfunction or up to 100 days post-transplantation.

[5] = Stability toward hydrolysis in acidic media; assay type: physicochemical; settings: 70/30 methanol/0.1N HCl (pH 1.5); free rapamycin by HPLC at 1 hour
[6] = Hydrolysis of rapamycin carbohydrate derivatives in human whole blood; assay type: in vitro ADME; settings: spiked in human whole blood; free rapamycin by HPLC at 1 hour
Beagle dogs = experiment: Gastrointestinal tolerability in beagle dogs
washed human platelets = experiment: Washed human platelet aggregation assay; settings: 25 μg/ml, 2 μM ADP, after 8 minutes, FIG. 11
Sprague-Dawley rats = experiment: Serum cholesterol levels in rats; assay type: in vivo; settings: 2.5 mg/kg/day for 12 days
Procedure: Cholesterol levels were measured at the 24-hour trough level on day 11.

[7] = test system: primary blood lymphocyte cultures (PBMC); experiment: In vitro immunosuppressive activity, PBMC proliferation (alamar blue); assay type: cell-based; settings: 3-day culturing, FIG. 5
[8] = 2.5 mg/kg/day oral gavage, day -3 to day 30, N = 6 (derivative n = 5)

| SMILES | share of the total radioactivity in blood [1] | half-life of degradation [2] | time to maximum concentration of rapamycin in blood ([3]; FIGS. 6 and 7) | Average Survival Time (days post-transplant) Mean ± SEM [4, 8] | Extent of Hydrolysis (%) [5] | Extent of Hydrolysis (%) [6] | Observations (Beagle dogs; beagle dog 4, oral dose 1 mg/kg, rapamycin given one week after the derivative, 1 mg/kg) | Observations (Beagle dogs; beagle dog 4, oral dose 1 mg/kg, rapamycin given one week after the derivative, listed as 42-O-(D-fructosylcarbonyl)rapamycin, 1 mg/kg) | Observations (Beagle dogs; beagle dogs, single oral dose 10 mg/kg, 10 mg/kg) | Observations (Beagle dogs; beagle dogs, single oral dose 10 mg/kg, listed as 42-O-(D-fructosylcarbonyl)rapamycin, 10 mg/kg) | platelet aggregation (washed human platelets) | serum cholesterol level relative to vehicle control group (Sprague-Dawley rats; 24-hour trough on day 11, FIG. 9) | serum cholesterol level relative to rapamycin group (Sprague-Dawley rats; 24-hour trough on day 11, p<0.01, FIG. 9) | time to maximum concentration of rapamycin in blood ([3]; FIG. 6) | cell proliferation inhibition / immunosuppressive activity [7] | prolonged survival of the graft over the vehicle control ([4]; 2.5 mg/kg/day) | prolonged survival of the graft over the vehicle control ([4]; 10 mg/kg/day) | Average Survival Time (days post-transplant) Mean ± SEM ([4]; 10 mg/kg/day oral gavage, day -3 to day 30, N = 6) |
| --- | --- | --- | --- | --- | --- | --- | --- | --- | --- | --- | --- | --- | --- | --- | --- | --- | --- | --- |
| CO[C@H]1C[C@@H]2CC[C@@H](C)[C@@](O)(O2)C(=O)C(=O)N2CCCC[C@H]2C(=O)O[C@H]([C@H](C)C[C@@H]2CC[C@@H](O)[C@H](OC)C2)CC(=O)[C@H](C)/C=C(\C)[C@@H](O)[C@@H](OC)C(=O)[C@H](C)C[C@H](C)/C=C/C=C/C=C/1C [Rapamycin] | approximately 35% | less than 10 hours | approximately 30 minutes | 39 ± 4 days post-transplant |  |  |  |  |  |  |  |  |  |  |  |  |  |  |
| CO[C@H]1C[C@@H]2CC[C@@H](C)[C@@](O)(O2)C(=O)C(=O)N2CCCC[C@H]2C(=O)O[C@H]([C@H](C)C[C@@H]2CC[C@@H](O)[C@H](OC)C2)CC(=O)[C@H](C)/C=C(\C)[C@@H](OC(=O)OCC2(O)OC[C@@H](O)[C@@H](O)[C@@H]2O)[C@@H](OC)C(=O)[C@H](C)C[C@H](C)/C=C/C=C/C=C/1C (stereo partly drawn) [31-O-(D-Fructosylcarbonyl)rapamycin] |  |  |  |  | <1% | 23 ± 0.5% |  |  |  |  |  |  |  |  |  |  |  |  |
| CO[C@H]1C[C@@H]2CC[C@@H](C)[C@@](O)(O2)C(=O)C(=O)N2CCCC[C@H]2C(=O)O[C@H]([C@H](C)C[C@@H]2CC[C@@H](OC(=O)OCC3(O)OC[C@@H](O)[C@@H](O)[C@@H]3O)[C@H](OC)C2)CC(=O)[C@H](C)/C=C(\C)[C@@H](O)[C@@H](OC)C(=O)[C@H](C)C[C@H](C)/C=C/C=C/C=C/1C (stereo partly drawn) [42-O-(D-Fructosylcarbonyl)rapamycin] |  |  |  | 41 ± 4 days post-transplant | <1% | 28 ± 2% | Lethargic; also recorded: Recovered | slight lethargy | Normal | no overt physical changes | does not exhibit a measurable effect | not significantly different | significantly lower | approximately 3 hours | equivalent to rapamycin | 214% | 341% | 57 ± 4 days post-transplant |
